# Assay results: paper PMC6275946 (ACS Omega, 2018)
# Key:
# [1] = biological target: T1, SHP1 (Src-homology-2-domain containing protein tyrosine phosphatase 1) (Homo sapiens, UniProt P29350); test: pNPP phosphatase assay, […] compound, […] h preincubation at […] °C; format: biochemical
# T1 sequence (P29350 244-515 limits assumed): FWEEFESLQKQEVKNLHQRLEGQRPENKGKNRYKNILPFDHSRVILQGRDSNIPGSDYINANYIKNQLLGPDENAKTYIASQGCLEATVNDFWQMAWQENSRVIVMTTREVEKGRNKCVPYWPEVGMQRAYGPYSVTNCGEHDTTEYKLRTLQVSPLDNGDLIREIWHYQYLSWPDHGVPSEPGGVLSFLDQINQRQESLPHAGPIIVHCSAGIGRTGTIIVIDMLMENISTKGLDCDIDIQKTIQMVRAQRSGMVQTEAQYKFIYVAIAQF
# [2] = biological target: SHP2 (Src-homology-2-domain-containing PTP 2) (Homo sapiens, UniProt Q06124); test: LC-MS/MS of covalent cysteine labeling; format: biochemical
# Chain of SHP2 (Src-homology-2-domain-containing PTP 2) (Q06124 1-541): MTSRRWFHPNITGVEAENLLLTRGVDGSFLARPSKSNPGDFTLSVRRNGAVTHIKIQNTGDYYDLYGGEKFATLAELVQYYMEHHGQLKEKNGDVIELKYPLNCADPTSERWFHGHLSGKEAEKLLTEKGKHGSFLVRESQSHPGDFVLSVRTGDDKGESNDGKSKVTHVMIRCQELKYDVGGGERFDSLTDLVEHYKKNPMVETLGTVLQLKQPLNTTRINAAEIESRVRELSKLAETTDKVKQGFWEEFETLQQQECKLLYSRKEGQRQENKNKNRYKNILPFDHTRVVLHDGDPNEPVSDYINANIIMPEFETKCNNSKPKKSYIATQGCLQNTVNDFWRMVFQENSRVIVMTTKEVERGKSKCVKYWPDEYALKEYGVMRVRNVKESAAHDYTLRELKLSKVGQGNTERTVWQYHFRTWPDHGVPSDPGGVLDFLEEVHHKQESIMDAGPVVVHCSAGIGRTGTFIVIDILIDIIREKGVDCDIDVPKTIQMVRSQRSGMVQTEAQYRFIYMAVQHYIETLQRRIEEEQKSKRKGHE
smiles,measurement,setting,value
"C=CC(=O)Nc1ccnc2ccccc12 [compound 12, N-(Quinolin-4-yl)prop-2-enamide]","pNPP phosphatase assay, 50 μM compound, 4 h preincubation at 37 °C",[1],"the only two human PTPs that have cysteine at this position, SHP2 and SHP1, are sensitive to inhibition"
same,IC50,[2],~35 µM
